According to publication PMC10799709, “Characterization of a New Immunosuppressive and Antimicrobial Peptide, DRS-DA2, Isolated from the Mexican Frog, Pachymedusa dacnicolor” (International Journal of Inflammation, 2024):
Peptide text beside a SMILES is read from it.

Columns and labels:
Human erythrocytes = experiment: Hemolytic test, human erythrocytes; format: cell-based; settings: human erythrocytes in PBS, 1 h, 37°C, absorbance 550 nm; no death at 10 µM; 3 independent experiments in triplicate
Protocol: (§1) Blood from a mouse or healthy adult donor was centrifuged at 800 × g for 10 minutes at 4°C. The pellet containing red blood cells was then washed three times in 10 volumes of PBS and was diluted in 4% (v/v) in PBS. Blood and peptides at different concentrations were then incubated at 37°C for one hour. Cells were centrifuged 1500 × g for 5 minutes at room temperature. Hemolysis was measured in the supernatant at 550 nm. Red blood cells lysed with 1% Triton X-100 was used as a control, achieving 100% hemolysis. Percent hemolysis was calculated using the following formula: % hemolysis = 100% × [(A − A0)/(At − A0)], where A represents the absorbance of the peptide sample at 550 nm and A0 and At represent 0% and 100% hemolysis determined in 10 mM PBS and 0.1% Triton X-100, respectively.

Mouse erythrocytes = experiment: Hemolytic test, mouse erythrocytes; format: cell-based; settings: mouse erythrocytes in PBS, 1 h, absorbance 550 nm; no death at 10 µM; 3 independent experiments in triplicate
Protocol: as §1

[1] = test system: Human primary epithelial cells; experiment: Cytotoxic assay on human primary epithelial cells; format: cell-based; settings: 2 h, 37°C, flow cytometry, no death at 10 µM
From the text: (§2) Human leukocytes were provided by the « Banco de Sangre del Hospital Regional del IMSS » and the Centro Estatal de la Transfusión Sanguínea in Cuernavaca, Morelos, Mexico. Institutional committees approved the acquisition and isolation of human peripheral blood leukocytes. Human leukocytes and erythrocytes were obtained as previously described. Mouse bone marrow cells (MBMCs) and erythrocytes were obtained from C57BL/6 or Balb/c mice. Mouse epithelial cells were isolated from C57Bl/6 mice, and human epithelial cells were recovered from surgery residues. In brief, intestinal tissues were minced and digested in 450-U/mL collagenase I, 125-U/mL collagenase XI, 60-U/mL hyaluronidase, and 60-U/mL DNAse for 1 hour before gradient density centrifugation on Histopaque-1083 (Sigma-Aldrich, St. Louis, MO). […]
(§3) 5.10^5 mouse or human leukocytes or primary epithelial cells, A549 or Jurkat E6-1 cells, were incubated in 100 µl RPMI or DMEM containing 0.5% BSA and […] with the peptides at different concentrations for 2 hours at 37°C, 5% CO2. […] Viability of leukocytes and Jurkat cells was determined by adding a viability dye (eFluor 780) and counted by FacsCanto flow cytometry with a predetermined number of beads (Polybead, Carboxylate Microspheres, Polysciences, Inc., Le Perray-en-Yvelines, France) added to the samples. […] Data were analyzed with FlowJo.

[2] = test system: Mouse primary epithelial cells; experiment: Cytotoxic assay on mouse primary epithelial cells; format: cell-based; settings: 2 h, 37°C, flow cytometry, no death at 10 µM
From the text: as §2, §3

A549 cells = experiment: A549 viability, CCK8 assay; format: cell-based, human; settings: A549, 1 h, 37°C, duplicate, no death at 10 µM
From the text: Human leukocytes were provided by the « Banco de Sangre del Hospital Regional del IMSS » and the Centro Estatal de la Transfusión Sanguínea in Cuernavaca, Morelos, Mexico. Institutional committees approved the acquisition and isolation of human peripheral blood leukocytes. Human leukocytes and erythrocytes were obtained as previously described. Mouse bone marrow cells (MBMCs) and erythrocytes were obtained from C57BL/6 or Balb/c mice. Mouse epithelial cells were isolated from C57Bl/6 mice, and human epithelial cells were recovered from surgery residues. In brief, intestinal tissues were minced and digested in 450-U/mL collagenase I, 125-U/mL collagenase XI, 60-U/mL hyaluronidase, and 60-U/mL DNAse for 1 hour before gradient density centrifugation on Histopaque-1083 (Sigma-Aldrich, St. Louis, MO). A549 cells (ATCC CCL-185), a human lung carcinoma cell line, were cultivated at 37°C in a humid atmosphere and 5% CO2, with DMEM advanced medium (Gibco®) supplemented with 5% of fetal bovine serum (FBS), 2 mM of glutamine, 100 U of penicillin, and 50 μg/mL of streptomycin (Gibco®). Jurkat E6-1 cells were cultured in an RPMI medium supplemented with 5% fetal bovine serum.
For the cell line A549, viability was assessed by the CCK8 assay (DoJindo) as indicated by the manufacturer. […] The absorbance at 450 nm was measured after 3 h incubation.

[3] = In vitro peptide stability in rat serum, RP-HPLC; format: in vitro ADME; settings: 37°C, 300 µM peptide; for degradation of the peptide: RPMI with 25% (v/v) rat serum
Protocol: (§4) One mL of RPMI supplemented with 25% (v/v) rat serum was equilibrated at 37°C for 15 min before adding the peptide (final concentration of 300 µM). At different time points, 300 µL of the reaction solution was removed and completed to 600 µL with 96% ethanol. The sample was cooled at 4°C for 15 min and then spun to precipitate serum proteins. The supernatant was recovered and submitted to the viability assay as described in the cytotoxic assay section or analyzed by RP-HPLC on C18–300 100 × 4, 6 mm. A linear gradient from 100% buffer A (0.1% TFA in H20) to 60% of buffer B (0.1% TFA in ACN) was used over 10 min with a flow rate of 1 mL/min. The absorbance was detected at both 220 nm and 280 nm.

mouse bone marrow cells = experiment: Cytotoxic activity of peptide recovered after serum incubation; format: cell-based; settings: then 5 µM on mouse bone marrow cells for 2 h
Protocol: 5.10^5 mouse or human leukocytes or primary epithelial cells, A549 or Jurkat E6-1 cells, were incubated in 100 µl RPMI or DMEM containing 0.5% BSA and […] with the peptides at different concentrations for 2 hours at 37°C, 5% CO2. Incubation of the cells with DMSO 30% was used as a positive control. For the kinetic assay, the cells were incubated with the peptides for different time periods. Viability of leukocytes and Jurkat cells was determined by adding a viability dye (eFluor 780) and counted by FacsCanto flow cytometry with a predetermined number of beads (Polybead, Carboxylate Microspheres, Polysciences, Inc., Le Perray-en-Yvelines, France) added to the samples. Mouse leukocytes were stained with anti-mouse Ly6G-PE, anti-mouse NK1.1-PE, anti-mouse CD11b-PerCP, and anti-mouse F4/80-APC (BD Biosciences, Rungis, France). Human leukocytes were stained with anti-human CD45-PB, anti-human CD16-PE-Cy7, anti-human CD56-PE-Cy7, anti-human CD14-FITC, anti-human CD3V500, anti-human CD8-APC, and anti-human CD4-PE. Data were analyzed with FlowJo.
as §4

SMILES | toxicity for erythrocytes (hemolysis) (Human erythrocytes) | toxicity for erythrocytes (hemolysis) (Mouse erythrocytes) | toxicity for primary epithelial cells [1] | toxicity for primary epithelial cells [2] | toxicity for A549 cells (A549 cells) | degradation of the peptide ([3]; 24 h, RP-HPLC, UV 220 nm) | degradation of the peptide ([3]; after 30 min, RP-HPLC C18, UV 220 nm, intact peak area vs sum of all peptide areas, n = 3 independent experiments) | percentage of dead cells versus t0 peptide (mouse bone marrow cells; peptide (300 µM) pre-incubated with serum 15 min (t15), flow cytometry) | percentage of dead cells versus t0 peptide (mouse bone marrow cells; peptide pre-incubated with serum 30 min (t30)) | induction of cell death (mouse bone marrow cells; peptide pre-incubated with serum 24 h (t24)) | Trp λmax in aqueous buffer | time of resistance to enzymatic degradation ([3]; rat serum, title of Figure 7)
CSCC[C@H](NC(=O)[C@H](CC(N)=O)NC(=O)[C@@H](NC(=O)[C@@H](NC(=O)[C@H](C)NC(=O)[C@H](CC(N)=O)NC(=O)[C@H](CC(C)C)NC(=O)[C@@H](NC(=O)[C@H](C)NC(=O)[C@H](CCCCN)NC(=O)CNC(=O)[C@H](C)NC(=O)[C@@H](NC(=O)[C@H](CCCCN)NC(=O)CNC(=O)[C@@H](NC(=O)[C@H](CCCCN)NC(=O)[C@H](CCCCN)NC(=O)[C@H](CC(C)C)NC(=O)[C@H](CC(C)C)NC(=O)[C@@H](NC(=O)[C@H](CCCCN)NC(=O)[C@H](Cc1c[nH]c2ccccc12)NC(=O)[C@H](CC(C)C)NC(=O)[C@H](C)N)[C@@H](C)O)C(C)C)C(C)C)C(C)C)C(C)C)[C@@H](C)O)C(=O)N[C@@H](C)C(=O)N[C@@H](CC(N)=O)C(=O)N[C@@H](CCC(N)=O)C(=O)N[C@@H](CC(N)=O)C(=O)O [DRS-DA2N] (H-ALWKTLLKKVGKVAGKAVLNAVTNMANQN-OH) | not toxic | not toxic | not toxic | not toxic | not toxic | totally degraded | 40% | no significant differences | started to decrease | almost completely abolished | 355 nm | 
CSCC[C@H](NC(=O)[C@H](CC(N)=O)NC(=O)[C@@H](NC(=O)[C@@H](NC(=O)[C@H](C)NC(=O)[C@H](CC(N)=O)NC(=O)[C@H](CC(C)C)NC(=O)[C@@H](NC(=O)[C@H](C)NC(=O)[C@H](CCCCN)NC(=O)CNC(=O)[C@H](C)NC(=O)[C@@H](NC(=O)[C@H](CCCCN)NC(=O)CNC(=O)[C@@H](NC(=O)[C@H](CCCCN)NC(=O)[C@H](CCCCN)NC(=O)[C@H](CC(C)C)NC(=O)[C@H](CC(C)C)NC(=O)[C@@H](NC(=O)[C@H](CCCCN)NC(=O)[C@H](Cc1c[nH]c2ccccc12)NC(=O)[C@H](CC(C)C)NC(=O)[C@H](C)N)[C@@H](C)O)C(C)C)C(C)C)C(C)C)C(C)C)[C@@H](C)O)C(=O)N[C@@H](C)C(=O)N[C@@H](CC(N)=O)C(=O)N[C@@H](CCC(N)=O)C(=O)N[C@@H](CC(N)=O)C(=O)N[C@@H](CCC(=O)O)C(=O)N[C@@H](CCC(N)=O)C(=O)O [DRS-DA2NEQ] (H-ALWKTLLKKVGKVAGKAVLNAVTNMANQNEQ-OH) | not toxic | not toxic | not toxic | not toxic | not toxic |  |  |  |  |  | 355 nm | 15 min
